Assays:
[1] = tested on: adult subjects with relapsing MS; test: Confirmed relapses up to EOS - annualized relapse rate (ARR), phase III study; type: in vivo, human; details: for Total number of relapses (confirmed, up to EOS): total time 1119 / 1137 years; for Mean estimate (ARR), confirmed relapses up to EOS, negative binomial regression: ponesimod 20 mg, teriflunomide 14 mg
Procedure: Primary efficacy variable/primary timepoint: The primary endpoint was annualized relapse rate (ARR) up to the end of study (EOS) defined as the number of confirmed relapses per subject-year. All available data up to EOS, regardless of treatment discontinuation was included (ITT approach).
A generalized linear model with negative binomial distribution was fitted for the primary efficacy endpoint ARR. Two-sided hypotheses were expressed in terms of the model parameters μP20 mg and μT14 mg.
The primary statistical analysis of the ARR endpoint was performed on the FAS using a negative binomial model for confirmed relapses, with the stratification variables prior use of disease-modifying therapies (DMTs) and EDSS category as well as the number of relapses in the year prior to study entry, included in the model and time in the study as an offset variable. Sensitivity analyses was performed on the PPS and also based on different subgroups derived from baseline variables.
A relapse is defined as new, worsening or recurrent neurological symptoms that occur at least 30 days after the onset of a preceding relapse, and that last at least 24 hours, in the absence of fever or infection.
A relapse was confirmed by the treating neurologist only when the subjects' symptoms were accompanied by an increase in EDSS/FS (functional system) scores, which were consistent with the subject's symptoms, from a previous clinically stable EDSS/FS assessment (i.e., performed at least 30 days after the onset of any previous relapse), obtained by the efficacy assessor and consistent with the following: • An increase of at least half a step (0.5 points; unless EDSS=0, then an increase of at least 1.0 points is required) or • An increase of at least 1.0 point in at least two FS scores, or • An increase of at least 2.0 points in at least one FS score (excluding bladder/bowel and cerebral).
The primary statistical analysis was performed up to EOS on the FAS using a negative binomial regression model for confirmed relapses, with treatment as a factor and the binary stratification variables (EDSS≤3.5 versus EDSS>3.5; DMTs within last 2 years prior to randomization [Yes/No]) and the number of relapses in the year prior to study entry (categories≤1 (or missing) and […]) included in the model. The model also included an offset variable defined as the log of time on study (in years) from randomization up to EOS.
This subgroup analysis examined patients with EDSS≤3 (up to moderate disability in one function, or mild disability in three or four functions; no impairment to walking), and/or who were treatment naïve.
ARR differences and mean number of CUALs were examined using a negative binomial regression model with adjusting for the log time in the study (in years) as an offset.

[2] = tested on: adult subjects with relapsing MS; test: FSIQ-RMS weekly symptoms score, change from baseline to Week 108 (fatigue); type: in vivo, human; details: for FSIQ-RMS change: Improved (<−6.3), patients / FSIQ-RMS change: Stable (−6.3 < x < +6.3), patients / FSIQ-RMS change: Stable or Improved, patients / FSIQ-RMS change: Worsened (≥6.3), patients / FSIQ-RMS-S total score change: Improved (<−6.3), patients / FSIQ-RMS-S total score change: Stable (−6.3 < x < +6.3), patients / FSIQ-RMS-S total score change: Stable or Improved, patients / FSIQ-RMS-S total score change: Worsened (≥6.3), patients: Week 108; for Mean change from baseline to Week 108 in FSIQ-RMS weekly symptoms score (MMRM): ponesimod 20 mg, teriflunomide 14 mg, full analysis set, increase = worsening
Procedure: In some embodiments, the patient-reported outcome questionnaire is the symptom domain of the FSIQ-RMS. The FSIQ-RMS symptom domain (FSIQ-RMS-S) consists of seven items assessing fatigue-related symptoms with a recall period of 24 hours measured on an 11-point numeric rating scale; the standardized symptom domain score ranges from 0 to 100 with a higher score indicating greater fatigue. This domain (i.e., section 1 of the questionnaire) is completed on 7 consecutive days.
As used herein, the term “patient level” refers to individual or within patient level of change. As used herein, “clinically meaningful” refers to the practical importance of a treatment effect and whether it has a real genuine, palpable, noticeable effect on symptoms and/or daily life. When interpreting data from a Patient Reported Outcome (PRO), for example, it is helpful to define a level of change on the PRO score over a predetermined time period that should be interpreted as a treatment benefit. Various terms are used for this level of change, including meaningful change threshold (MCT). This threshold can be used to conduct a responder analysis where an individual patient is a responder if the level of change on the PRO score for that patient exceeds the MCT. The proportion of responders between treatment groups can be compared to evaluate treatment effect. For example, in certain embodiments disclosed herein, there is an analysis of the percentage of responders in the ponesimod and teriflunomide treatment groups using an MCT of −6.3 on the FSIQ-RMS weekly symptom score. The percentage of subjects in the stable or improved category is also calculated. […] Accordingly, evaluation of within patient changes using MCT and associated responder analyses are used to provide additional interpretation to a p-value derived from a statistical test
For the MS symptoms domain, the FSIQ-RMS asks about a patient's fatigue-related symptoms of relapsing MS over the past 24 hours while doing routine daily activities (e.g., housework, yard work, shopping, working, etc.) for Items 1-6 or while at rest (e.g., reading a book, watching TV, etc.) for Item 7. Patients are asked to select a response on a scale of 0 to 10 that best describes their experience and are asked to not skip any questions, with no answers being right or wrong. • Item 1—In the past 24 hours, while doing routine daily activities, how physically tired did you feel? See FIG. 31. • Item 2—In the past 24 hours, while doing routine daily activities, how mentally tired did you feel? See FIG. 32. • Item 3—In the past 24 hours, while doing routine daily activities, how physical weak did you feel? See FIG. 33. • Item 4—In the past 24 hours, how would you rate your energy while doing routine daily activities? See FIG. 34. • Item 5—In the past 24 hours, while doing routine daily activities, how worn out did you feel? See FIG. 35. • Item 6—In the past 24 hours, while doing routine daily activities, how sleepy did you feel? See FIG. 36. • Item 7—In the past 24 hours, how worn out did you feel while at rest? MS-Related Impacts—13 Items
Secondary efficacy variables and testing strategy: Four secondary efficacy endpoints were analyzed as per the statistical testing strategy outlined in FIG. 1. • Change from baseline to Week 108 in fatigue-related symptoms as measured by the symptoms domain of the FSIQ-RMS patient-reported outcome [Fatigue] • Cumulative number of combined unique active lesions from baseline to Week 108 on brain MRI [CUALs] • Time to first 12-week confirmed disability accumulation (CDA) from baseline to EOS on Expanded Disability Status Scale (EDSS) [12-week CDA] • Time to first 24-week CDA from baseline to EOS on EDSS [24-week CDA] […]

[3] = ponesimod 20 mg vs teriflunomide 14 mg, Full Analysis Set
[4] = Baseline EDSS <3.5 (title: ≤3.5)
[5] = baseline fatigue below the median
[6] = no prior DMT treatment within about two years
[7] = no prior DMT treatment within about two years, listed as ponesimod

| SMILES | Raw ARR ([1]; Full Analysis Set) | Total number of relapses (confirmed, up to EOS) ([1]; Full Analysis Set) | Mean estimate (ARR), confirmed relapses up to EOS, negative binomial regression ([1]; Full Analysis Set) | FSIQ-RMS change: Improved (<−6.3), patients [2, 4] [%] | FSIQ-RMS change: Stable (−6.3 < x < +6.3), patients [2, 4] [%] | FSIQ-RMS change: Stable or Improved, patients [2, 4] [%] | FSIQ-RMS change: Worsened (≥6.3), patients [2, 4] [%] | FSIQ-RMS-S total score change: Improved (<−6.3), patients ([2]; Full Analysis Set) [%] | FSIQ-RMS-S total score change: Stable (−6.3 < x < +6.3), patients ([2]; Full Analysis Set) [%] | FSIQ-RMS-S total score change: Stable or Improved, patients ([2]; Full Analysis Set) [%] | FSIQ-RMS-S total score change: Worsened (≥6.3), patients ([2]; Full Analysis Set) [%] | FSIQ-RMS change: Improved (<−6.3), patients [2, 5] [%] | FSIQ-RMS change: Stable (−6.3 < x < +6.3), patients [2, 5] [%] | FSIQ-RMS change: Stable or Improved, patients [2, 5] [%] | FSIQ-RMS change: Worsened (≥6.3), patients [2, 5] [%] | FSIQ-RMS change: Improved (<−6.3), patients ([2]; no Gd+ T1 lesions at baseline) [%] | FSIQ-RMS change: Stable (−6.3 < x < +6.3), patients ([2]; no Gd+ T1 lesions at baseline) [%] | FSIQ-RMS change: Stable or Improved, patients ([2]; no Gd+ T1 lesions at baseline) [%] | FSIQ-RMS change: Worsened (≥6.3), patients ([2]; no Gd+ T1 lesions at baseline) [%] | FSIQ-RMS change: Improved (<−6.3), patients [2, 6] [%] | other results |
| --- | --- | --- | --- | --- | --- | --- | --- | --- | --- | --- | --- | --- | --- | --- | --- | --- | --- | --- | --- | --- | --- |
| CCC/N=C1\S/C(=C\c2ccc(OC[C@H](O)CO)c(Cl)c2)C(=O)N1c1ccccc1C [Ponesimod, (R)-5-[3-chloro-4-(2,3-dihydroxy-propoxy)-benz[Z]ylidene]-2-([Z]-propylimino)-3-o-tolyl-thiazolidin-4-one] | 0.216 | 242 | 0.202 | 30.6 | 40.8 | 71.4 | 28.6 | 30.5 | 38.4 | 68.9 | 31.1 | 19.1 | 45.2 | 64.4 | 35.6 | 30.0 | 37.4 | 67.5 | 32.5 | 31.4 | ARR rate ratio (RR), ponesimod vs teriflunomide ([1]; EDSS≤3 subgroup): 0.530; Reduction of ARR vs teriflunomide ([1]; EDSS≤3 subgroup): 47%; Reduction of ARR (confirmed relapses) up to EOS compared to teriflunomide ([1]; ponesimod 20 mg vs teriflunomide 14 mg): 30.5%; Treatment effect (rate ratio) on ARR, ponesimod vs teriflunomide [1, 3]: 0.695; MS-fatigue (FSIQ-RMS) mean difference, change from baseline to week 108, ponesimod vs teriflunomide ([2]; EDSS≤3 subgroup): −4.31; FSIQ-RMS change: Stable or Improved, patients ([2]; baseline fatigue below the median, listed as ponesimod): ~65%; FSIQ-RMS change: Stable or Improved, patients ([2]; no Gd+ T1 lesions at baseline, listed as ponesimod): about 68%; FSIQ-RMS change: Stable (−6.3 < x < +6.3), patients [2, 6]: 44.0%; FSIQ-RMS change: Stable or Improved, patients [2, 6]: 75.4%; FSIQ-RMS change: Worsened (≥6.3), patients [2, 6]: 24.6%; FSIQ-RMS change: Improved (<−6.3), patients [2, 7]: 31.4%; FSIQ-RMS change: Stable or Improved, patients [2, 7]: about 75%; Mean difference in FSIQ-RMS change from baseline to Week 108, ponesimod vs teriflunomide [2, 3]: −3.57; Mean change from baseline to Week 108 in FSIQ-RMS weekly symptoms score (MMRM) [2]: −0.01 |
| C/C(O)=C(\C#N)C(=O)Nc1ccc(C(F)(F)F)cc1 [Teriflunomide, reference compound] | 0.303 | 344 | 0.290 | 27.9 | 34.2 | 62.1 | 37.9 | 29.9 | 32.6 | 62.5 | 37.5 | 20.9 | 33.7 | 54.6 | 45.4 | 25.8 | 31.2 | 57.0 | 43.0 | 26.2 | FSIQ-RMS change: Stable or Improved, patients ([2]; baseline fatigue below the median, listed as teriflunomide): about 55%; FSIQ-RMS change: Stable or Improved, patients ([2]; no Gd+ T1 lesions at baseline, listed as teriflunomide): about 57%; FSIQ-RMS change: Stable (−6.3 < x < +6.3), patients [2, 6]: 36.9%; FSIQ-RMS change: Stable or Improved, patients [2, 6]: 63.1%; FSIQ-RMS change: Worsened (≥6.3), patients [2, 6]: 36.9%; Mean change from baseline to Week 108 in FSIQ-RMS weekly symptoms score (MMRM) [2]: 3.56 |

From patent US12728116B2, “Methods of treating multiple sclerosis” (Vanda Pharmaceuticals Inc., priority 2021, dated 2026)
